In patent US20260103471A1, “CYCLIC UREA THIAZOLYL COMPOUNDS FOR TREATMENT OF HSV” (Assembly Biosciences, Inc., priority 2022, published 2026):

System: HSV-2 G strain
Test: HSV-2 Antiviral Assay (Vero cells, cell viability)
Type: cell-based
Details: Vero cells, 160 TCID50 HSV-2 G strain, 5 days, cell viability
Protocol: Vero cells were cultured in Dulbecco's Modified Eagle Medium (DMVEM) supplemented with […] and 100 units/mL penicillin and streptomycin. The cells were passaged 2-3 times per week to maintain sub-confluent densities.
Vero cells were seeded into 96-well plates at a density of 1.0×10^4 cells per well and allowed to attach overnight. Following attachment, the media was replaced with 50 μL of infection medium (DMEM supplemented with 2% fetal bovine serum and 100 units/mL penicillin and streptomycin). A Tecan D300e digital dispenser was then used to add compounds to the culture using an 8-point 3-fold serial dilution format. The DMSO concentration was normalized to 0.5% for all treatments. Following compound addition, 50 μL of infection medium containing 160 TCID50 HSV-2 G strain was added to the cells and incubated at 37° C. for 5 days. After the incubation, 10 μL/well of WST-8 chromogenic reagent was added and the plates incubated at 37° C. for 3 hours. Following the incubation, cell viability was quantified by measuring the absorbance at 460 nm and 620 nm using a Tecan Infinite M1000 Pro plate reader.

[1] = Human alphaherpesvirus 2, Vero, 120 h

SMILES | EC50 [1] | EC50
COC1CN(c2ccc(-c3cc(F)ccc3F)cc2)C(=O)N(c2nc(C)c(S(N)(=O)=O)s2)C1 (stereo not shown) [Compound 357, 2-(3-(2′,5′-difluoro-[1,1′-biphenyl]-4-yl)-5-methoxy-2-oxotetrahydropyrimidin-1(2H)-yl)-4-methylthiazole-5-sulfonamide] | 1000 to 5000 nM | 
Cc1nc(N2C[C@@H](C#N)CN(c3ccc(-c4cc(F)ccc4F)cc3)C2=O)sc1S(N)(=O)=O (single isomer, unassigned) [Compound 377] |  | < 100 nM
COc1ccc(F)cc1-c1ccc(N2CC(C)CN(c3nc(C)c(S(N)(=O)=O)s3)C2=O)cc1 (stereo not shown) [Compound 329] | < 100 nM | 
Cc1nc(N2CC(O)CN(c3ccc(-c4cc(F)ccc4F)cc3)C2=O)sc1S(N)(=O)=O (stereo not shown) [Compound 353, 2-(3-(2′,5′-difluoro-[1,1′-biphenyl]-4-yl)-5-hydroxy-2-oxotetrahydropyrimidin-1(2H)-yl)-4-methylthiazole-5-sulfonamide] | < 100 nM | 
COc1c(F)cc(F)cc1-c1ccc(N2CC(C(C)(C)O)CN(c3nc(C)c(S(N)(=O)=O)s3)C2=O)cc1 (stereo not shown) [Compound 345] | 100 to 1000 nM | 
Cc1nc2cc(F)cc(-c3ccc(N4CCCN(c5nc(C)c(S(N)(=O)=O)s5)C4=O)cc3)c2s1 [Compound 256] | < 100 nM | 
Cc1nc(N2C[C@@H](C#N)CN(c3ccc(-c4cc(F)ccc4F)cc3)C2=O)sc1S(N)(=O)=O (single isomer, unassigned) [Compound 362] | < 100 nM | 
COc1ccc(F)cc1-c1ccc(N2CCCN(c3nc(C)c(S(N)(=O)=O)s3)C2=O)cc1 [Compound 203] | < 100 nM | 
Cc1nc(N2CCCN(c3ccc(-c4cc(F)ccc4F)cc3)C2=O)sc1S(=O)(=O)NCCC(C)(C)O [Compound 393] | < 100 nM | 
Cc1nc(N2CC(F)(F)CN(c3ccc(-c4cc(F)ccc4F)cc3)C2=O)sc1S(N)(=O)=O [Compound 367] | < 100 nM | 
Cc1nc(N2CCCN(c3ccc(-c4ncccc4F)cc3)C2=O)sc1S(=O)(=O)NC1CC1 [Compound 409] | < 100 nM | 
COc1cc(-c2ccc(N3CCCN(c4nc(C)c(S(N)(=O)=O)s4)C3=O)cc2)c2ccn(C)c2c1 [Compound 301] | < 100 nM | 
Cc1nc(N2CCCN(c3ccc(-c4cccc5c4cc(C)n5C)cc3)C2=O)sc1S(N)(=O)=O [Compound 250] | < 100 nM | 
COc1ccc(F)cc1-c1ccc(N2C[C@@H](C)CN(c3nc(C)c(S(N)(=O)=O)s3)C2=O)cc1 (single isomer, unassigned) [Compound 330] | < 100 nM | 
Cc1nc(N2CCCN(c3ccc(-c4nccc5c4cnn5C)cc3)C2=O)sc1S(N)(=O)=O [Compound 261] | 100 to 1000 nM | 
Cc1nc(N2CCCN(c3ccc(-c4ccccc4F)cc3)C2=O)sc1[S@](C)(=N)=O (single isomer, unassigned) [Compound 143] | < 100 nM | 
Cc1nc(N2CCCCN(c3ccc(-c4cccc5ncsc45)cc3)C2=O)sc1S(C)(=N)=O (stereo not shown) [Compound 428] | < 100 nM | 
Cc1nc(N2C[C@@H](C(C)(C)F)CN(c3ccc(-c4cc(F)ccc4F)cc3)C2=O)sc1S(N)(=O)=O (single isomer, unassigned) [Compound 351] | < 100 nM | 
Cc1nc(N2CC(C(N)=O)CN(c3ccc(-c4cc(F)ccc4F)cc3)C2=O)sc1S(N)(=O)=O (stereo not shown) [Compound 381] | 100 to 1000 nM | 
Cc1nc(N2CCCN(c3ccc(-c4ccccc4/C=C/C#N)cc3)C2=O)sc1S(N)(=O)=O [Compound 20] | 100 to 1000 nM | 
Cc1nc(N2CCCN(c3ccc(-c4cccc(C5CCC5)c4)cc3)C2=O)sc1S(N)(=O)=O [Compound 199] | 100 to 1000 nM | 
Cc1nc(N2CCCN(c3ccc(-c4cccc5ccnn45)cc3)C2=O)sc1S(N)(=O)=O [Compound 64] |  | 100 to 1000 nM
C#Cc1nc(N2CCCN(c3ccc(-c4cc(F)ccc4F)cc3)C2=O)sc1S(N)(=O)=O [Compound 439] | < 100 nM | 
Cc1nc(N2CCCN(c3ccc(-c4cc(F)cc5nsnc45)cc3)C2=O)sc1S(=O)(=O)NCCCO [Compound 418] | < 100 nM | 
Cc1nc(N2CCCN(c3ccc(-c4snc5c(F)ccc(F)c45)cc3)C2=O)sc1S(N)(=O)=O [Compound 307] | 100 to 1000 nM | 
